According to US20210179578A1, “OX1 ANTAGONISTS” (Heptares Therapeutics Limited, priority 2017, published 2021):

Key:
[1] = molecular target: T1, human OX2 receptor (Homo sapiens, UniProt O43614); test: [3H]-radioligand binding assay, OX2; design: made in house; host or cells: SF21 insect cells (baculovirus; P0 virus made in SF9); conditions: for Ki: [3H]-radioligand binding, human OX2 membranes, read-out: pKi average OX2 (converted)
T1 sequence (O43614 1-444): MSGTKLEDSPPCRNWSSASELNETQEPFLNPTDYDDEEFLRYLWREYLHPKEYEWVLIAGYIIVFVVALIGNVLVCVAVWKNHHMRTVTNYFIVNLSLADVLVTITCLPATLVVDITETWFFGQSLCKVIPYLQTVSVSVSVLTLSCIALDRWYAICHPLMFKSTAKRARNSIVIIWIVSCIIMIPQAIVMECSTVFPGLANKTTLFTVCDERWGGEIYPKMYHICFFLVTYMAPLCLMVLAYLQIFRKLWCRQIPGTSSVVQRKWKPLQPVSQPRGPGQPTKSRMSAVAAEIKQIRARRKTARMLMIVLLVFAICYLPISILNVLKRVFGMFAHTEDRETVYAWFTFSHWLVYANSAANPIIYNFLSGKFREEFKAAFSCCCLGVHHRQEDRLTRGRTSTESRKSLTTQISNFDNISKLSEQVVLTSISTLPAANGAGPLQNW
Excerpt: (§1) Cloning, Baculovirus generation, large-scale infection of SF21 cells and membrane preparation. Human OX1 or OX2 receptor were cloned into Invitrogen's (ThermoFisher Scientific, UK) Bac-to-Bac Baculovirus Expression System. P0 baculovirus was generated by transfecting SF9 cells with bacmid DNA using Cellfectin® II transfection reagent (ThermoFisher Scientific, UK, Catalog number 10362-100). Following P0 generation P1 virus was then generated ready for large scale infection and membrane preparation. SF21 cells were grown in expression medium ESF921 (Expression Systems, USA, catalog number 96-001-01) supplemented with 10% heat-inactivated FBS and 1% Pen/Strep and were infected at a cell density of 2.5×10^6 cells/mL and a multiplicity of infection of 1.0 for both human OX1R and OX2R. Incubation was carried out at over 48 h in a shaking incubator set at 27° C. The cell culture was then centrifuged at 2,500 rcf for 10 min at 4° C. The pellets were resuspended in cold PBS supplemented with Roche's Complete EDTA-free protease inhibitor cocktail tablets (Roche Applied Sciences, catalog number 05056489001), 1 mM PMSF and 1 mM EDTA. The resuspended cell paste was then centrifuged at 3,273 rcf for 12 min at 4° C. The supernatant was discarded and the pellet frozen at −80° C. The cell pellet from a 4 L culture was resuspended in buffer containing 50 mM HEPES pH 7.5, 150 mM NaCl, 8 Roche EDTA-Free protease inhibitor cocktail tablets and 1 mM PMSF. The suspension was left stirring at rt for 1 h and then homogenised for 90 s at 9,500 rpm using a VDI 25 (VWR, USA) homogeniser. The cells were then lysed using a Microfluidiser processor M-110L Pneumatic (Microfluidics, USA) at 60 PSI and membranes collected by ultracentrifugation at 204.7 k×g for 1 h. The supernatant was discarded and the pellet was resuspended and homogenised in 90 s at 9,500 rpm in 50 mL (25 mL for each 2 L culture) of buffer containing 50 mM Hepes pH 7.5, 150 mM NaCl, 3 Roche EDTA-free protease inhibitor cocktail tablets and 1 mM PMSF. The resulting membranes were then stored at −80° C.
(§2) [^3H]-radioligand binding assay. After thawing, membrane homogenates were resuspended in the binding buffer (8.5 mM HEPES, pH 7.4, 1.3 mM CaCl2, 1.2 mM MgSO4, 118 mM NaCl, 4.7 mM KCl, 4 mM NaHCO3, 1.2 mM KH2PO4, 11 mM glucose) to a final assay concentration of 6.4 μg (OX1) or 1.4 μg (OX2) protein per well. Saturation isotherms were determined by the addition of various concentrations (0-30 nM) of [^3H]-4-(2,6-difluoro-4-methoxybenzyl)-2-(5,6-dimethoxypyridin-3-yl)-2H-1,2,4-benzothiadiazin-3(4H)-one 1,1-dioxide (Christopher et al, MedChemComm., 2015, 6, 947-955) in a total reaction volume of 250 μL for 90 min at rt. At the end of the incubation, membranes were filtered onto a 96-well GF/B filter pre-incubated with 0.5% polyethylenimine, with a Tomtec cell harvester and washed 5 times with 0.5 mL distilled water. Non-specific binding (NSB) was measured in the presence of 3.33 μM [4-(5-chloro-1,3-benzoxazol-2-yl)-7-methyl-1,4-diazepan-1-yl][5-methyl-2-(2H-1,2,3-triazol-2-yl)phenyl]methanone (Wertz et al, Angew. Chem. Int. Ed., 2011, 50, 11511-11515). Radioactivity on the filter was counted (1 min) on a Microbeta radiometric plate counter (Perkin Elmer) after addition of 50 μL of scintillation fluid (LabLogic: Part #SG-BXX-14). […] IC50 values were derived from the inhibition curve and the equilibrium dissociation constant (Ki) values were calculated using the Cheng-Prusoff equation.

[2] = molecular target: T2, human OX1 receptor (Homo sapiens, UniProt O43613); test: [3H]-radioligand binding assay, OX1; design: made in house; host or cells: SF21 insect cells (baculovirus; P0 virus made in SF9); conditions: for Ki: [3H]-radioligand binding, human OX1 membranes, read-out: pKi average OX1 (converted)
T2 sequence (O43613 1-425): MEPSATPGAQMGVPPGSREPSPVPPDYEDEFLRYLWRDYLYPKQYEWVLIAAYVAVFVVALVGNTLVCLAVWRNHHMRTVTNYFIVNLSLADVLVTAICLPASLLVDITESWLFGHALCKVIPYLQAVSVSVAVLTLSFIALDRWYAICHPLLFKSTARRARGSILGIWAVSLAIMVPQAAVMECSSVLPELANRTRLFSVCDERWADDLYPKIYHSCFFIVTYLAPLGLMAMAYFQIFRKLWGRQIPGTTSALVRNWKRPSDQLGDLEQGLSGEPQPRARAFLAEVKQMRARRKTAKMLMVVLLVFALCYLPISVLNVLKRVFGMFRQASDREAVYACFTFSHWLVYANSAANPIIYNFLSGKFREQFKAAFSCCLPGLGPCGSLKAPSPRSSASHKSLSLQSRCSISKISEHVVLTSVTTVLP
Excerpt: as §1, §2

SMILES | Ki [1] [nM] | Ki [2] [nM] | Kd ([1]; OX2 receptor membranes, saturation isotherms) [nM] | Kd ([2]; OX1 receptor membranes, saturation isotherms) [nM]
COc1ncc(C2CCc3c(F)cccc3N(Cc3c(F)cc(Br)cc3F)C2=O)cc1C(C)(F)F (single isomer, unassigned) [Example 11, 1-(4-bromo-2,6-difluorobenzyl)-3-[5-(1,1-difluoroethyl)-6-methoxypyridin-3-yl]-6-fluoro-1,3,4,5-tetrahydro-2H-1-benzazepin-2-one] | > 126 | 1.58 | – | –
COc1ncc(C2CCc3c(F)cccc3N(Cc3c(F)cc(Br)cc3F)C2=O)cc1S(C)(=O)=O (single isomer, unassigned) [Example 20, 1-(4-bromo-2,6-difluorobenzyl)-6-fluoro-3-[6-methoxy-5-(methylsulfonyl)pyridin-3-yl]-1,3,4,5-tetrahydro-2H-1-benzazepin-2-one] | > 631 | 200 | – | –
COCc1cc(F)c(CN2C(=O)C(c3cnc(C)c(C(C)(F)F)c3)CCc3c(F)cccc32)c(F)c1 (single isomer, unassigned) [Example 40, 3-[5-(1,1-difluoroethyl)-6-methylpyridin-3-yl]-1-[2,6-difluoro-4-(methoxymethyl)benzyl]-6-fluoro-1,3,4,5-tetrahydro-2H-1-benzazepin-2-one] | > 15.8 | 1.58 | – | –
Cc1ncc(C2CCc3c(F)cccc3N(Cc3cc(C#N)ccc3F)C2=O)cc1C(C)(F)F (single isomer, unassigned) [Example 41, 3-({3-[5-(1,1-difluoroethyl)-6-methylpyridin-3-yl]-6-fluoro-2-oxo-2,3,4,5-tetrahydro-1H-1-benzazepin-1-yl}methyl)-4-fluorobenzonitrile] | > 501 | 1.26 | – | –
COc1cc(F)c(CN2C(=O)N(c3cnc(OC)c(OC)c3)S(=O)(=O)c3ccccc32)c(F)c1 [[^3H]-4-(2,6-difluoro-4-methoxybenzyl)-2-(5,6-dimethoxypyridin-3-yl)-2H-1,2,4-benzothiadiazin-3(4H)-one 1,1-dioxide, reference compound] | – | – | 0.75 | 1.5
